Measured values reported in patent publication US5985871A, “Benzoxazine compounds for enhancing synaptic response” (Cortex Pharmaceuticals, Inc., priority 1997, dated 1999).

Columns and labels:
AMPA receptors = experiment: field EPSP response in rat hippocampal slices; type: cell-based; conditions: for EPSP response, in words: comment on Table 1
Method: Hippocampal tissue slices were perfused with artificial cerebrospinal fluid containing increasing concentrations of test compound at 15-30 minute intervals separated by perfusion with ACSF without the test compound, and the percent increases in EPSP amplitude and half-width before and after compound perfusion were determined.
The physiological effects of compounds in accordance with the invention can be tested in vitro with slices of rat hippocampus according to the following procedure. Excitatory responses (field EPSPs) are measured in hippocampal slices, which are maintained in a recording chamber continuously perfused with artificial cerebrospinal fluid (ACSF). During a 15-30 minute interval, the perfusion medium is switched to one containing various concentrations of the test compounds. Responses collected immediately before and at the end of drug perfusion were superimposed in order to calculate both the percent increase in EPSP amplitude and percent increase in the width of the response at one-half the peak height (half-width). An increase in either measure, that is, of the amplitude or half-width, can be used as an indicator of beneficial therapeutic activity.
To conduct these tests, the hippocampus was removed from anesthetized, 2 month old Sprague-Dawley rats and tissue slices (400 micrometers thick) were prepared and maintained in an interface chamber at 35° C. using conventional techniques [see, for example, Dunwiddie and Lynch, J. Physiol. […] A bipolar nichrome stimulating electrode was positioned in the dendritic layer (stratum radiatum) of the hippocampal subfield CA1 close to the border of subfield CA3.
Current pulses (0.1 msec) through the stimulating electrode activate a population of the Schaffer-commissural (SC) fibers, which arise from neurons in the subdivision CA3 and terminate in synapses on the dendrites of CA1 neurons. Activation of these synapses causes them to release the transmitter glutamate. Glutamate binds to the post-synaptic AMPA receptors which then transiently open an associated ion channel and permit a sodium current to enter the postsynaptic cell. This current results in a voltage in the extracellular space (the field excitatory post-synaptic potential or field "EPSP") which is recorded by a high impedance recording electrode positioned in the middle of the stratum radiatum of CA1.
For the experiments summarized in Table 1, the intensity of the stimulation current was adjusted to produce half-maximal EPSPs (typically about 1.5-2.0 mV). Paired stimulation pulses were given every 40 sec with an interpulse interval of 200 msec (see below). The field EPSPs of the second response were digitized and analyzed to determine amplitude, half-width, and response area. If the responses were stable for 15-30 minutes (baseline), test compounds were added to the perfusion lines for a period of about 20 minutes. The perfusion was then changed back to regular ACSF.
Paired-pulse stimulation was used because stimulation of the SC fibers, in part, activates interneurons that generate an inhibitory postsynaptic potential (IPSP) in the pyramidal cells of CA1. This feed forward IPSP typically sets in after the EPSP reaches its peak. It accelerates the repolarization and shortens the decay phase of the EPSP, and thus could partially mask the effects of the test compounds. One of the relevant features of the feed-forward IPSP is that it can not be reactivated for several hundred milliseconds following a stimulation pulse. This phenomenon can be employed to advantage to eliminate IPSP by delivering paired pulses separated by 200 milliseconds and using the second ("primed") response for data analysis.

rats = experiment: 8-arm radial maze memory test; type: in vivo, rat; conditions: for Maze MED (Minimum Effective Dose) / minimal effective dose: threshold dose for enhancing memory in rats, 8-arm radial maze; for minimal effective dose: Rattus norvegicus, read-out: Maze MED (Minimum Effective Dose)
Method: The right bar of each pair represents the results for the same animals administered vehicle alone on alternate days of testing.
All of the data in FIG. 1 were obtained using the same group of ten rats. […] In other words, vehicle alone was administered to the group on days 1, 3 and 5, and compound at a selected dosage was administered on days 2 and 4. […] Error bars indicate the standard error of the mean (SEM). The asterisks (*) in the figure indicate data wherein p<0.05 by the paired t test.

brain AMPA receptors = conditions: metabolite of aniracetam; cited from earlier work
[1] = peripheral administration in humans; Guenzi and Zanetti 1990; cited from earlier work
[2] = compound concentration 30 μM, rat hippocampal slice, field CA1
[3] = compound concentration 100 μM, rat hippocampal slice, field CA1

In the case of `O=C1c2cc3c(cc2OC2SCCN12)OCO3` (centres unmarked) [Compound 4, 7,8-Dihydro-5aH, 10H-1,3-dioxolo[4,5-g]thiazolo[2,3-b][1,3]benzoxazin-10-one], the “EPSP response, in words” value (AMPA receptors) is reported as “About the same activity” and the “EPSP Response (percent increase in amplitude of the EPSP response)” value (AMPA receptors; [2]) is reported as 20%.
For `O=C1c2cc3c(cc2OC2OCCN12)OCO3` (single isomer, unassigned) [Column Fraction 1], the “EPSP Response (percent increase in amplitude of the EPSP response)” value (AMPA receptors; compound concentration 50 μM, resolved enantiomers of compound 1, listed as first-eluting enantiomer) was 80% and the “Maze MED (Minimum Effective Dose)” value (rats; listed as active enantiomer of compound 1) was 10 µg/kg.
With `CC1COC2Oc3cc4c(cc3C(=O)N12)OCO4` (centres unmarked) [Compound 6, 7,8-Dihydro-8-methyl-5aH, 10H-1,3-dioxolo[4,5-g]oxazolo[2,3-b][1,3]benzoxazin-10-one] the “EPSP Response (percent increase in amplitude of the EPSP response)” value (AMPA receptors; [3]) was 10%.
For `O=C1c2cc3c(cc2OC2CCCN12)OCCO3` (centres unmarked) [Compound 2c, reference compound], the “EPSP Response (percent increase in amplitude of the EPSP response)” value (AMPA receptors; compound concentration >30 μM, rat hippocampal slice, field CA1) was 25% and the minimal effective dose (rats) was 0.1 mg/kg.
For `O=C1c2cc3c(cc2OC2OCCCN12)OCO3` (centres unmarked) [Compound 7, 8,9-Dihydro-5aH, 7H, 10H-1,3-dioxolo[4,5-g][1,3]oxazino[2,3-b][1,3]benzoxazin-11-one], the “EPSP Response (percent increase in amplitude of the EPSP response)” value (AMPA receptors; [2]) was 15%.
With `O=C1c2cc3c(cc2OC2OCCN12)OCO3` (racemic) [Compound 1, 7,8-Dihydro-5aH, 10H-1,3-dioxolo[4,5-g]oxazolo[2,3-b][1,3]benzoxazin-10-one] the “EPSP Response (percent increase in amplitude of the EPSP response)” value (AMPA receptors; [2]) was 34%, the “EPSP Response (percent increase in amplitude of the EPSP response)” value (AMPA receptors; compound concentration 50 μM, resolved enantiomers of compound 1) was 80% and the “average total number of errors” value (rats; FIG. 1, 0.03, 0.1 and 0.5 mg/kg versus vehicle, ten rats) was “significant, dose-dependent reduction”. The “average number of correct choices before the first error” value (rats; FIG. 1, 0.03, 0.1 and 0.5 mg/kg versus vehicle, ten rats, retention phase) was “significant, dose-dependent increase” and the “Maze MED (Minimum Effective Dose)” value (rats) was 50 µg/kg.
In the case of `O=C1c2cc3c(cc2OC2CCCN12)OCO3` (centres unmarked) [Compound 1c, reference compound], the “EPSP Response (percent increase in amplitude of the EPSP response)” value (AMPA receptors; [3]) is reported as 25% and the minimal effective dose (rats) is reported as 1 mg/kg.
In the case of `COc1ccc(C(=O)NCCCC(=O)O)cc1` [anisoyl-GABA], the aniracetam-like effects (brain AMPA receptors) is given as “only weak aniracetam-like effects”.
For `O=C1c2cc3c(cc2OC2CCCCN12)OCO3` (centres unmarked) [Compound 7c, reference compound], the “EPSP Response (percent increase in amplitude of the EPSP response)” value (AMPA receptors; compound concentration 300 μM, rat hippocampal slice, field CA1) was 25%.
In the case of `CC1(C)Oc2cc3c(cc2O1)C(=O)N1CCOC1O3` (centres unmarked) [Compound 3, 7,8-Dihydro-2,2-dimethyl-5aH, 10H-1,3-dioxolo[4,5-g]oxazolo[2,3-b][1,3]benzoxazin-10-one], the “EPSP Response (percent increase in amplitude of the EPSP response)” value (AMPA receptors; [2]) is reported as 33%.
In the case of `O=C1c2cc3c(cc2OC2OCCN12)OCO3` (single isomer, unassigned) [Column Fraction 2], the “EPSP Response (percent increase in amplitude of the EPSP response)” value (AMPA receptors; compound concentration 50 μM, resolved enantiomers of compound 1, listed as second-eluting enantiomer) is reported as “does not detectably change”, the “MED of less active enantiomer relative to active enantiomer” value (rats; enantiomers of compound 1, maze test) is reported as 50 fold and the “Maze MED (Minimum Effective Dose)” value (rats; listed as less active enantiomer) is reported as 500 µg/kg.
With `CC1CN2C(=O)c3cc4c(cc3OC2O1)OCO4` (single isomer, unassigned) [Compound 5.1, 7,8-Dihydro-7-methyl-5aH, 10H-1,3-dioxolo[4,5-g]oxazolo[2,3-b][1,3]benzoxazin-10-one] the “EPSP Response (percent increase in amplitude of the EPSP response)” value (AMPA receptors; [2]) was 14%.
With `CC12OCCN1C(=O)c1cc3c(cc1O2)OCO3` (centres unmarked) [Compound 8, 7,8-Dihydro-5a-methyl-10H-1,3-dioxolo[4,5-g]oxazolo[2,3-b][1,3]benzoxazin-10-one] the “EPSP Response (percent increase in amplitude of the EPSP response)” value (AMPA receptors; [3]) was 8%.
In the case of `O=C(NCCO)c1cc2c(cc1O)OCO2` [Compound 1i, 2-(2-Hydroxy-4,5-methylenedioxybenzamido)ethanol], the “EPSP response, in words” value (AMPA receptors) is reported as “increased EPSP response” and the “EPSP Response (percent increase in amplitude of the EPSP response)” value (AMPA receptors; [3]) is reported as 8%.
In the case of `COc1ccc(C(=O)N2CCCC2=O)cc1` [aniracetam, N-anisoyl-2-pyrrolidinone], the “fraction of drug converted to anisoyl-GABA” value [1] is listed as “about 80%”.
With `O=C1c2cc3c(cc2OC2OCCN12)OCCO3` (centres unmarked) [Compound 2, 8,9-Dihydro-6aH, 11H-1,4-dioxan[2,3-g]oxazolo[2,3-b][1,3]benzoxazin-11-one] the “EPSP Response (percent increase in amplitude of the EPSP response)” value (AMPA receptors; compound concentration 5 μM, rat hippocampal slice, field CA1) was 35% and the minimal effective dose (rats) was 0.01 mg/kg.
In the case of `CC1CN2C(=O)c3cc4c(cc3OC2O1)OCO4` (single isomer, unassigned) [Compound 5.2, 7,8-Dihydro-7-methyl-5aH, 10H-1,3-dioxolo[4,5-g]oxazolo[2,3-b][1,3]benzoxazin-10-one], the “EPSP Response (percent increase in amplitude of the EPSP response)” value (AMPA receptors; [2]) is reported as 10%.
